Several values for one entry are separate records, joined by “and”; a condition that tells them apart may be missing. Equal values may be shown once.
Experiments:
[1] = Saturation concentration of NK1 receptor antagonists in olive oil; format: physicochemical; conditions: 25° C.
Procedure: Each of said mixtures was continuously and gently stirred for 10 minutes at ambient temperature (25° C.) and then maintained at rest for 60 minutes. The saturation concentration was considered to be that which was immediately lower in the aforementioned series than a concentration where deposition was observed, but in which no deposition of the active ingredient was observed.

[2] = Tissue concentration of aprepitant by HPLC after oral or inhaled administration to rabbits; format: in vivo, New Zealand albino rabbits; conditions: for concentration at 7 days: New Zealand White (albino), rabbit
Procedure: Herein, New Zealand albino rabbits (New Zealand White Rabbits) with an initial average weight of approximately 3 kg were used. The rabbits were fed ad libitum and were monitored daily to check that signs of toxicity had not appeared. […] This mixture was administered as an aerosol to the airways of a group of 3 of said rabbits (Group 5) in a dose of 0.05 mg/kg body weight per day, to another group of three rabbits (Group 6) in a dose of 0.1 mg/kg body weight per day, to another group of three rabbits (group 7) in a dose of 0.2 mg/kg body weight per day and to another group of three rabbits (Group 8) in a dose of 0.4 mg/kg body weight per day. […] After seven days of treatment all animals were euthanized and necropsied. […] Samples were taken at the peripheral level of the lung parenchyma, just below the pleural surface. Tissue samples were also taken from the nasal cavity, pharynx, larynx and bronchi. […] The average is the arithmetic average calculated for each row or column of each table. The SD is the standard deviation, calculated for each row or column of each table.

[3] = Group 1, oral 10 mg/kg per day, seven days, individual cases, 10 mg/kg/day
[4] = Group 2, oral 40 mg/kg per day, seven days, individual cases, 40 mg/kg/day
[5] = Group 3, oral 80 mg/kg per day, seven days, individual cases, 80 mg/kg/day
[6] = Group 4, oral 100 mg/kg per day, seven days, individual cases, 100 mg/kg/day
[7] = Group 5, inhalation (aerosol, olive oil) 0.05 mg/kg per day, seven days, individual cases, 0.05 mg/kg/day
[8] = Group 6, inhalation (aerosol, olive oil) 0.1 mg/kg per day, seven days, individual cases, 0.1 mg/kg/day
[9] = Group 7, inhalation (aerosol, olive oil) 0.2 mg/kg per day, seven days, individual cases, 0.2 mg/kg/day
[10] = Group 8, inhalation (aerosol, olive oil) 0.4 mg/kg per day, seven days, individual cases, 0.4 mg/kg/day

## C[C@@H](OC1OCCN(Cc2nc(=O)[nH][nH]2)C1c1ccc(F)cc1)c1cc(C(F)(F)F)cc(C(F)(F)F)c1 (stereo in doubt) [Aprepitant, 5-([(2R,3S)-2-((R)-1-[3,5-bis(trifluoromethyl)phenyl]ethoxy)-3-(4-fluorophenyl)morpholino]methyl)-1H-1,2,4-triazol-3(2H)-one]
[1]
  Saturation concentration: 60 nM
[2]; [3]
  Lung concentration of aprepitant LIPD (right inferior lobe): 0.9 micrograms of aprepitant per gram of lung tissue and 1.0 micrograms of aprepitant per gram of lung tissue
  Lung concentration of aprepitant LIPI (left inferior lobe): 1.4 micrograms of aprepitant per gram of lung tissue and 1.1 micrograms of aprepitant per gram of lung tissue
  Lung concentration of aprepitant LMPD (right middle lobe): 1.4 micrograms of aprepitant per gram of lung tissue and 1.5 micrograms of aprepitant per gram of lung tissue
  Lung concentration of aprepitant LSPD (right superior lobe): 1.1 micrograms of aprepitant per gram of lung tissue and 0.4 micrograms of aprepitant per gram of lung tissue and 1.2 micrograms of aprepitant per gram of lung tissue
  Lung concentration of aprepitant LSPI (left superior lobe): 1.0 micrograms of aprepitant per gram of lung tissue and 0.5 micrograms of aprepitant per gram of lung tissue
[2]; [4]
  Lung concentration of aprepitant LIPD (right inferior lobe): 3.1 micrograms of aprepitant per gram of lung tissue and 4.2 micrograms of aprepitant per gram of lung tissue
  Lung concentration of aprepitant LIPI (left inferior lobe): 2.8 micrograms of aprepitant per gram of lung tissue and 4.0 micrograms of aprepitant per gram of lung tissue
  Lung concentration of aprepitant LMPD (right middle lobe): 2.9 micrograms of aprepitant per gram of lung tissue and 5.1 micrograms of aprepitant per gram of lung tissue
  Lung concentration of aprepitant LSPD (right superior lobe): 4.1 micrograms of aprepitant per gram of lung tissue and 3.3 micrograms of aprepitant per gram of lung tissue
  Lung concentration of aprepitant LSPI (left superior lobe): 4.2 micrograms of aprepitant per gram of lung tissue and 3.6 micrograms of aprepitant per gram of lung tissue
[2]; [5]
  Lung concentration of aprepitant LIPD (right inferior lobe): 6.3 micrograms of aprepitant per gram of lung tissue and 5.3 micrograms of aprepitant per gram of lung tissue
  Lung concentration of aprepitant LIPI (left inferior lobe): 3.4 micrograms of aprepitant per gram of lung tissue and 4.3 micrograms of aprepitant per gram of lung tissue
  Lung concentration of aprepitant LMPD (right middle lobe): 5.5 micrograms of aprepitant per gram of lung tissue and 5.3 micrograms of aprepitant per gram of lung tissue
  Lung concentration of aprepitant LSPD (right superior lobe): 4.2 micrograms of aprepitant per gram of lung tissue and 3.3 micrograms of aprepitant per gram of lung tissue
  Lung concentration of aprepitant LSPI (left superior lobe): 5.1 micrograms of aprepitant per gram of lung tissue
[2]; [6]
  Lung concentration of aprepitant LIPD (right inferior lobe): 5.9 micrograms of aprepitant per gram of lung tissue and 6.1 micrograms of aprepitant per gram of lung tissue
  Lung concentration of aprepitant LIPI (left inferior lobe): 4.8 micrograms of aprepitant per gram of lung tissue and 5.1 micrograms of aprepitant per gram of lung tissue
  Lung concentration of aprepitant LMPD (right middle lobe): 5.1 micrograms of aprepitant per gram of lung tissue and 5.4 micrograms of aprepitant per gram of lung tissue
  Lung concentration of aprepitant LSPD (right superior lobe): 4.8 micrograms of aprepitant per gram of lung tissue and 4.3 micrograms of aprepitant per gram of lung tissue
  Lung concentration of aprepitant LSPI (left superior lobe): 5.2 micrograms of aprepitant per gram of lung tissue and 4.5 micrograms of aprepitant per gram of lung tissue
[2]; [7]
  Lung concentration of aprepitant LIPD (right inferior lobe): 1.5 micrograms of aprepitant per gram of lung tissue and 1.6 micrograms of aprepitant per gram of lung tissue
  Lung concentration of aprepitant LIPI (left inferior lobe): 1.5 micrograms of aprepitant per gram of lung tissue and 1.4 micrograms of aprepitant per gram of lung tissue
  Lung concentration of aprepitant LMPD (right middle lobe): 1.6 micrograms of aprepitant per gram of lung tissue and 1.5 micrograms of aprepitant per gram of lung tissue
  Lung concentration of aprepitant LSPD (right superior lobe): 1.4 micrograms of aprepitant per gram of lung tissue and 1.5 micrograms of aprepitant per gram of lung tissue
  Lung concentration of aprepitant LSPI (left superior lobe): 1.5 micrograms of aprepitant per gram of lung tissue
[2]; Group 6, inhalation (aerosol, olive oil) 0.1 mg/kg per day, seven days, individual cases
  Lung concentration of aprepitant LMPD (right middle lobe): 2.9 micrograms of aprepitant per gram of lung tissue
[2]; [8]
  Lung concentration of aprepitant LIPD (right inferior lobe): 2.9 micrograms of aprepitant per gram of lung tissue and 2.8 micrograms of aprepitant per gram of lung tissue
  Lung concentration of aprepitant LIPI (left inferior lobe): 2.8 micrograms of aprepitant per gram of lung tissue and 2.9 micrograms of aprepitant per gram of lung tissue
  Lung concentration of aprepitant LSPD (right superior lobe): 2.8 micrograms of aprepitant per gram of lung tissue and 2.9 micrograms of aprepitant per gram of lung tissue
  Lung concentration of aprepitant LSPI (left superior lobe): 2.7 micrograms of aprepitant per gram of lung tissue and 2.8 micrograms of aprepitant per gram of lung tissue
[2]; Group 7, inhalation (aerosol, olive oil) 0.2 mg/kg per day, seven days, individual cases
  Lung concentration of aprepitant LIPD (right inferior lobe): 6.0 micrograms of aprepitant per gram of lung tissue
[2]; [9]
  Lung concentration of aprepitant LIPI (left inferior lobe): 6.0 micrograms of aprepitant per gram of lung tissue and 5.9 micrograms of aprepitant per gram of lung tissue
  Lung concentration of aprepitant LMPD (right middle lobe): 6.0 micrograms of aprepitant per gram of lung tissue and 6.1 micrograms of aprepitant per gram of lung tissue
  Lung concentration of aprepitant LSPD (right superior lobe): 5.9 micrograms of aprepitant per gram of lung tissue and 6.0 micrograms of aprepitant per gram of lung tissue
  Lung concentration of aprepitant LSPI (left superior lobe): 6.1 micrograms of aprepitant per gram of lung tissue and 5.9 micrograms of aprepitant per gram of lung tissue
[2]; [10]
  Lung concentration of aprepitant LIPD (right inferior lobe): 10.4 micrograms of aprepitant per gram of lung tissue and 10.0 micrograms of aprepitant per gram of lung tissue
  Lung concentration of aprepitant LIPI (left inferior lobe): 10.1 micrograms of aprepitant per gram of lung tissue and 9.9 micrograms of aprepitant per gram of lung tissue
  Lung concentration of aprepitant LMPD (right middle lobe): 10.1 micrograms of aprepitant per gram of lung tissue and 9.9 micrograms of aprepitant per gram of lung tissue
  Lung concentration of aprepitant LSPD (right superior lobe): 10.0 micrograms of aprepitant per gram of lung tissue and 9.8 micrograms of aprepitant per gram of lung tissue
  Lung concentration of aprepitant LSPI (left superior lobe): 10.2 micrograms of aprepitant per gram of lung tissue and 10.0 micrograms of aprepitant per gram of lung tissue
[2]; in vivo, 0.05 mg/kg/day, Lung concentration of aprepitant, Average ± SD of the five lobes per case
  concentration at 7 days: 1400 ng/g
[2]; in vivo, 0.1 mg/kg/day, Lung concentration of aprepitant, Average ± SD of the five lobes per case
  concentration at 7 days: 2800 ng/g
[2]; in vivo, 0.2 mg/kg/day, Lung concentration of aprepitant, Average ± SD of the five lobes per case
  concentration at 7 days: 6020 ng/g
[2]; in vivo, po, 100 mg/kg/day, Lung concentration of aprepitant, Average ± SD of the five lobes per case
  concentration at 7 days: 5240 ng/g
[2]; lung, left inferior lobe, inhaled, 0.05 mg/kg/day, Lung concentration of aprepitant LIPI (left inferior lobe), Group 5, inhalation (aerosol, olive oil) 0.05 mg/kg per day, seven days, individual cases
  concentration at 7 days: 1500 ng/g
[2]; lung, left inferior lobe, inhaled, 0.05 mg/kg/day, Lung concentration of aprepitant LIPI, Average ± SD of cases, Group 5, inhalation (aerosol, olive oil) 0.05 mg/kg per day, seven days
  concentration at 7 days: 1400 ng/g
[2]; lung, left inferior lobe, inhaled, 0.1 mg/kg/day, Lung concentration of aprepitant LIPI (left inferior lobe), Group 6, inhalation (aerosol, olive oil) 0.1 mg/kg per day, seven days, individual cases
  concentration at 7 days: 2800 ng/g
[2]; lung, left inferior lobe, inhaled, 0.1 mg/kg/day, Lung concentration of aprepitant LIPI, Average ± SD of cases, Group 6, inhalation (aerosol, olive oil) 0.1 mg/kg per day, seven days
  concentration at 7 days: 2800 ng/g
[2]; lung, left inferior lobe, inhaled, 0.2 mg/kg/day, Lung concentration of aprepitant LIPI (left inferior lobe), Group 7, inhalation (aerosol, olive oil) 0.2 mg/kg per day, seven days, individual cases
  concentration at 7 days: 5900 ng/g
[2]; lung, left inferior lobe, po, 100 mg/kg/day, Lung concentration of aprepitant LIPI (left inferior lobe), Group 4, oral 100 mg/kg per day, seven days, individual cases
  concentration at 7 days: 6100 ng/g
[2]; lung, left inferior lobe, po, 100 mg/kg/day, Lung concentration of aprepitant LIPI, Average ± SD of cases, Group 4, oral 100 mg/kg per day, seven days
  concentration at 7 days: 5300 ng/g
[2]; lung, left superior lobe, inhaled, 0.05 mg/kg/day, Lung concentration of aprepitant LSPI (left superior lobe), Group 5, inhalation (aerosol, olive oil) 0.05 mg/kg per day, seven days, individual cases
  concentration at 7 days: 1400 ng/g
[2]; lung, left superior lobe, inhaled, 0.05 mg/kg/day, Lung concentration of aprepitant LSPI, Average ± SD of cases, Group 5, inhalation (aerosol, olive oil) 0.05 mg/kg per day, seven days
  concentration at 7 days: 1400 ng/g
[2]; lung, left superior lobe, inhaled, 0.1 mg/kg/day, Lung concentration of aprepitant LSPI (left superior lobe), Group 6, inhalation (aerosol, olive oil) 0.1 mg/kg per day, seven days, individual cases
  concentration at 7 days: 2800 ng/g
[2]; lung, left superior lobe, inhaled, 0.1 mg/kg/day, Lung concentration of aprepitant LSPI, Average ± SD of cases, Group 6, inhalation (aerosol, olive oil) 0.1 mg/kg per day, seven days
  concentration at 7 days: 2700 ng/g
[2]; lung, left superior lobe, inhaled, 0.2 mg/kg/day, Lung concentration of aprepitant LSPI (left superior lobe), Group 7, inhalation (aerosol, olive oil) 0.2 mg/kg per day, seven days, individual cases
  concentration at 7 days: 6100 ng/g
[2]; lung, left superior lobe, po, 100 mg/kg/day, Lung concentration of aprepitant LSPI (left superior lobe), Group 4, oral 100 mg/kg per day, seven days, individual cases
  concentration at 7 days: 4300 ng/g
[2]; lung, left superior lobe, po, 100 mg/kg/day, Lung concentration of aprepitant LSPI, Average ± SD of cases, Group 4, oral 100 mg/kg per day, seven days
  concentration at 7 days: 4600 ng/g
[2]; lung, right inferior lobe, inhaled, 0.05 mg/kg/day, Lung concentration of aprepitant LIPD (right inferior lobe), Group 5, inhalation (aerosol, olive oil) 0.05 mg/kg per day, seven days, individual cases
  concentration at 7 days: 1500 ng/g
[2]; lung, right inferior lobe, inhaled, 0.05 mg/kg/day, Lung concentration of aprepitant LIPD, Average ± SD of cases, Group 5, inhalation (aerosol, olive oil) 0.05 mg/kg per day, seven days
  concentration at 7 days: 1500 ng/g
[2]; lung, right inferior lobe, inhaled, 0.1 mg/kg/day, Lung concentration of aprepitant LIPD (right inferior lobe), Group 6, inhalation (aerosol, olive oil) 0.1 mg/kg per day, seven days, individual cases
  concentration at 7 days: 2800 ng/g
[2]; lung, right inferior lobe, inhaled, 0.1 mg/kg/day, Lung concentration of aprepitant LIPD, Average ± SD of cases, Group 6, inhalation (aerosol, olive oil) 0.1 mg/kg per day, seven days
  concentration at 7 days: 2800 ng/g
[2]; lung, right inferior lobe, inhaled, 0.2 mg/kg/day, Lung concentration of aprepitant LIPD (right inferior lobe), Group 7, inhalation (aerosol, olive oil) 0.2 mg/kg per day, seven days, individual cases
  concentration at 7 days: 6000 ng/g
